The results in this text go back to patent publication US8486965B2, “Pyrrolo[2,3-b]pyridine derivative and use thereof for treatment of cancer” (Takeda Pharmaceutical Company Limited, priority 2009, dated 2013).

This assay concerns Hedgehog signal transduction system (Smo). Put plainly: Gli reporter luciferase assay in NIH-3T3/Gli reporter cells stimulated with mouse Shh-N end fragment. It counts as cell-based. The conditions noted are these: NIH3T3; 1 μM compound; NIH-3T3/Gli reporter cells with mouse Shh-N end fragment culture supernatant, 48 hr; luciferase activity, control without compound as 100; read-out: inhibition rate (%) at 1 μM. From the text:
Inhibition of the Hedgehog signal transduction system can be measured, for example, by quantifying a decrease in the expression level of a reporter gene connected to the downstream of the Gli binding site based on the fluorescence intensity according to the following Experimental Example 1. Alternatively, it can be measured by quantifying the expression of Gli-1 mRNA in a cell extract by quantitative PCR method and the like. A compound that inhibits Hedgehog signal targets Smo, which can be confirmed, for example, by binding fluorescence-labeled Cyclopamine and a test compound to cells expressing Smo, measuring the fluorescence level of the cell, and comparing the value with that without addition of a test compound to find a decrease.
Gli reporter plasmid was constructed by inserting 8×Gli-binding site and chicken δ-crystalline promoter into the upstream of luc+ of pGL3 (Promega).
prepared in reference to the base sequence described in GenBank accession No.; X02187, and chicken genome DNA (Clontech) as a template. PCR reaction was performed using Pfu Turbo (Stratagene) and following the attached protocol. The obtained 108 bp fragment was digested with restriction enzymes BglII and HindIII, and inserted into BglII-HindIII site of pGL3 to give plasmid pGL3/δ-cry promoter.
As 8× Gli-binding site, a sequence containing eight 9-bp Gli bound consensus sequences (GACCACCCA) described in Yoon et al., J. Biol. Chem., vol. 273, pages 3496-3501 (1998) was prepared from synthetic DNA. That is, two synthetic DNAs,
were heat treated at 95° C. for 2 minutes, and incubated at 37° C. for 1 hr for annealing to give a double stranded DNA of the above-mentioned two synthetic DNAs. The obtained double stranded DNA was digested with restriction enzymes BglII and KpnI, and the obtained DNA fragment was inserted into BglII-KpnI site of pGL3/δ-cry promoter to construct plasmid pGL3/δ-cry promoter, 8× Gli binding site, i.e., Gli reporter plasmid. 2. Construction of Plasmid for Expression of Mouse Shh-N End Fragment
As a material for construction of plasmid for Shh-N end fragment expression, mouse Shh cDNA was cloned at first.
The mouse Shh cDNA was cloned by Nested PCR method using mouse 11-day fetus cDNA (Clontech) as a template. The primer sequence was prepared in reference to the base sequence described in GenBank accession No.; NM_009170.
Using the mouse Shh cDNA sequence obtained as mentioned above as a template, a partial cDNA sequence wherein stop codon (TGA) was added to 3′-terminal of cDNA sequence encoding 1st to 198th amino acid sequence of mouse Shh was obtained by PCR method. As the primer set,
In the manner mentioned above, a plasmid for mouse Shh-N end fragment expression, pcDNA3.1/mShh-N, was constructed.
HEK293 cells were grown in D-MEM medium (Invitrogen) containing 10% fetal bovine serum in a 10 cm dish and pcDNA3.1/mShh-N was introduced into the cells using FuGENE6 (Roche Applied Science). Thereafter, the HEK293 cells were cultured in a carbon dioxide gas incubator at 37° C. for 24 hours, and the medium was exchanged with D-MEM medium (Invitrogen) containing 2% fetal bovine serum. After culturing for 48 hr, culture supernatant containing recombinant type mouse Shh-N end fragment was obtained by filtration using a filter ([…]).
Using D-MEM (Invitrogen) containing 10% fetal bovine serum, expression plasmid pcDNA3:1 and Gli reporter plasmid (pGL3/δ-cry promoter, 8× Gli binding site) produced by the method of Experimental Example 1 were introduced into NIH-3T3 cells grown in a 10 cm dish by the use of FuGENE6 (Roche Applied Science).
After culture for 24 hr, the cells were recovered, suspended in D-MEM medium containing 10% fetal bovine serum and supplemented with Geneticin (Life Technologies Oriental, Inc.) to a final concentration of 500 μg/ml, diluted to 10^4 cells/ml, plated on a 96 well plate, and cultured in a carbon dioxide gas incubator at 37° C. to give Geneticin resistant transformed cell line. […]

The term inhibition denotes the percentage by which the read-out fell short of the control. On to `CCc1nc2c(cc1NC(=O)c1cccs1)c(OC(C)C)c(C(=O)NC1CCN(C(=O)CO)CC1)n2C` [Example 51, 6-ethyl-N-[1-(hydroxyacetyl)piperidin-4-yl]-1-methyl-3-(1-methylethoxy)-5-[(thiophen-2-ylcarbonyl)amino]-1H-pyrrolo[2,3-b]pyridine-2-carboxamide], for which the inhibition at 1 µM turned out to be 94%. Take `CCc1nc2c(cc1NC(=O)c1ccco1)c(OCC(F)(F)F)c(C(=O)NC1CCN(C(=O)CO)CC1)n2C` [Example 52, 6-ethyl-5-[(furan-2-ylcarbonyl)amino]-N-[1-(hydroxyacetyl)piperidin-4-yl]-1-methyl-3-(2,2,2-trifluoroethoxy)-1H-pyrrolo[2,3-b]pyridine-2-carboxamide]: the inhibition at 1 µM is 94%.

Turning to `CCc1nc2c(cc1NC(=O)c1cncs1)c(OCC(F)(F)F)c(C(=O)NC1CCN(C(=O)CO)CC1)n2C` [Example 53, 6-ethyl-N-[1-(hydroxyacetyl)piperidin-4-yl]-1-methyl-5-[(1,3-thiazol-5-ylcarbonyl)amino]-3-(2,2,2-trifluoroethoxy)-1H-pyrrolo[2,3-b]pyridine-2-carboxamide], the inhibition at 1 µM was 95%.

Regarding `CCc1nc2c(cc1NC(=O)c1ccoc1)c(OCC(F)(F)F)c(C(=O)NC1CCN(C(=O)CO)CC1)n2C` [Example 54, 6-ethyl-5-[(furan-3-ylcarbonyl)amino]-N-[1-(hydroxyacetyl)piperidin-4-yl]-1-methyl-3-(2,2,2-trifluoroethoxy)-1H-pyrrolo[2,3-b]pyridine-2-carboxamide], the inhibition at 1 µM stood at 99%. On to `CCc1nc2c(cc1NC(=O)c1cscn1)c(OCC(F)(F)F)c(C(=O)NC1CCN(C(=O)CO)CC1)n2C` [Example 56, 6-ethyl-N-[1-(hydroxyacetyl)piperidin-4-yl]-1-methyl-5-[(1,3-thiazol-4-ylcarbonyl)amino]-3-(2,2,2-trifluoroethoxy)-1H-pyrrolo[2,3-b]pyridine-2-carboxamide], for which the inhibition at 1 µM stood at 97%. With `CCc1nc2c(cc1NC(=O)c1cc(C)nn1C)c(OCC(F)(F)F)c(C(=O)NC1CCN(C(=O)CO)CC1)n2C` [Example 57, 5-{[(1,3-dimethyl-1H-pyrazol-5-yl)carbonyl]amino}-6-ethyl-N-[1-(hydroxyacetyl)piperidin-4-yl]-1-methyl-3-(2,2,2-trifluoroethoxy)-1H-pyrrolo[2,3-b]pyridine-2-carboxamide] the figure was 99%; with `CCc1nc2sc(C(=O)NC3CCN(C(=O)CO)CC3)c(OCC(F)(F)F)c2cc1NC(=O)c1ccc(F)cc1` [Example 58, 6-ethyl-5-{[(4-fluorophenyl)carbonyl]amino}-N-[1-(hydroxyacetyl)piperidin-4-yl]-3-(2,2,2-trifluoroethoxy)thieno[2,3-b]pyridine-2-carboxamide], 97%; with `CCc1nc2c(cc1NC(=O)c1ccc(Cl)s1)c(OC(C)C)c(C(=O)NC1CCN(C(=O)CO)CC1)n2C` [Example 59, 5-{[(5-chlorothiophen-2-yl)carbonyl]amino}-6-ethyl-N-[1-(hydroxyacetyl)piperidin-4-yl]-1-methyl-3-(1-methylethoxy)-1H-pyrrolo[2,3-b]pyridine-2-carboxamide], 95%. On to `CCc1nc2c(cc1NC(=O)c1ccccc1)c(OC(C)C)c(C(=O)NCCS(=O)(=O)CCOC)n2C` [Example 60, 6-ethyl-N-{2-[(2-methoxyethyl)sulfonyl]ethyl}-1-methyl-3-(1-methylethoxy)-5-[(phenylcarbonyl)amino]-1H-pyrrolo[2,3-b]pyridine-2-carboxamide], for which the inhibition at 1 µM is 95%.

`CCc1nc2c(cc1NC(=O)c1ccsc1)c(OC(C)C)c(C(=O)NC1CCN(C(=O)CO)CC1)n2C` [Example 61, 6-ethyl-N-[1-(hydroxyacetyl)piperidin-4-yl]-1-methyl-3-(1-methylethoxy)-5-[(thiophen-3-ylcarbonyl)amino]-1H-pyrrolo[2,3-b]pyridine-2-carboxamide]: the inhibition at 1 µM worked out at 98%. Under `CCc1nc2c(cc1NC(=O)c1cscc1OC)c(OC(C)C)c(C(=O)NC1CCN(C(=O)CO)CC1)n2C` [Example 62, 6-ethyl-N-[1-(hydroxyacetyl)piperidin-4-yl]-5-{[(4-methoxythiophene-3-yl)carbonyl]amino}-1-methyl-3-(1-methylethoxy)-1H-pyrrolo[2,3-b]pyridine-2-carboxamide] stands 98%. With `CCc1nc2c(cc1NC(=O)c1sccc1Cl)c(OC(C)C)c(C(=O)NC1CCN(C(=O)CO)CC1)n2C` [Example 63, 5-{[(3-chlorothiophen-2-yl)carbonyl]amino}-6-ethyl-N-[1-(hydroxyacetyl)piperidin-4-yl]-1-methyl-3-(1-methylethoxy)-1H-pyrrolo[2,3-b]pyridine-2-carboxamide] the figure was 96%. Consider `Cc1cc2c(cc1NC(=O)c1ccccc1)c(OCC(F)(F)F)c(C(=O)NC1CCN(C(=O)CO)CC1)n2C` [Example 67, N-[1-(hydroxyacetyl)piperidin-4-yl]-1,6-dimethyl-5-[(phenylcarbonyl)amino]-3-(2,2,2-trifluoroethoxy)-1H-indole-2-carboxamide], for which the inhibition at 1 µM turned out to be 97%.

For the compound `Cc1cc2sc(C(=O)NC3CCN(C(=O)CO)CC3)c(OCC(F)(F)F)c2cc1NC(=O)c1ccccc1` [Example 68, N-[1-(hydroxyacetyl)piperidin-4-yl]-6-methyl-5-[(phenylcarbonyl)amino]-3-(2,2,2-trifluoroethoxy)-1-benzothiophene-2-carboxamide], the inhibition at 1 µM is 96%.

For `CCc1nc2c(cc1NC(=O)c1nccs1)c(OCC(F)(F)F)c(C(=O)NC1CCN(C(=O)CO)CC1)n2C` [Example 69, 6-ethyl-N-[1-(hydroxyacetyl)piperidin-4-yl]-1-methyl-5-[(1,3-thiazol-2-ylcarbonyl)amino]-3-(2,2,2-trifluoroethoxy)-1H-pyrrolo[2,3-b]pyridine-2-carboxamide], the inhibition at 1 µM was found to be 99%.

Regarding `CCc1cc2c(cc1NC(=O)c1ccccc1)c(OC(C)C)c(C(=O)NC1CCN(C(=O)CO)CC1)n2C` [Example 71, 6-ethyl-N-[1-(hydroxyacetyl)piperidin-4-yl]-1-methyl-3-(1-methylethoxy)-5-[(phenylcarbonyl)amino]-1H-indole-2-carboxamide], the inhibition at 1 µM turned out to be 97%. With `CCc1cc2c(nc1NC(=O)c1ccccc1)c(OCC(F)(F)F)c(C(=O)NC1CCN(C(=O)CO)CC1)n2C` [Example 127, 6-ethyl-N-[1-(hydroxyacetyl)piperidin-4-yl]-1-methyl-5-[(phenylcarbonyl)amino]-3-(2,2,2-trifluoroethoxy)-1H-pyrrolo[3,2-b]pyridine-2-carboxamide] the figure was 96%; with `CCc1cc2c(nc1-c1ccccc1)c(OCC(F)(F)F)c(C(=O)NC1CCN(C(=O)CO)CC1)n2C` [Example 128, 6-ethyl-N-[1-(hydroxyacetyl)piperidin-4-yl]-1-methyl-5-phenyl-3-(2,2,2-trifluoroethoxy)-1H-pyrrolo[3,2-b]pyridine-2-carboxamide], 94%. Under `CCOc1c(C(=O)NC2CCN(C(=O)CO)CC2)n(C)c2cc(CC)c(NC(=O)c3ccccc3)nc12` [Example 129, 3-ethoxy-6-ethyl-N-[1-(hydroxyacetyl)piperidin-4-yl]-1-methyl-5-[(phenylcarbonyl)amino]-1H-pyrrolo[3,2-b]pyridine-2-carboxamide] stands 92%.
